PMC7600710, “The Inhibition of Serine/Threonine Protein Phosphatase Type 5 Mediates Cantharidin Toxicity to Control Periplaneta americana (L.)” (Insects, 2020)

B1: serine/threonine protein phosphatase type 5 (PaPP5), catalytic domain PaPP5c (Periplaneta americana) (protein)
chain: YNGPKLEDGKVTLEFMQHLMKTYKEQGKLHRKYAYKILLDVKQLFMSQPSLVEITIPDDSKFTVCGDIHGQFYDLMNIFNLNGLPSPTNPYLFNGDFVDRGSFSVECIFTLFGFKLLYPEHFFMSRGNHESQTMNQMYGFEGEVKAKYTAQMSELFTEVYNWLPLAHCLNGRILVMHGGLFSRDDVTLEEIKEIDRNRQPPEEGLMCELLWSDPQPQVGRAPSKRGVGVQFGPDVTKKFLELNGLDYVIRSHEVKNEGYEVAHDGKCITVFSAPNYCDTMGNKGAFIVLKGKDMKPQYTTYEAVPHPNVKPVAYANSLLSLIC

Legend:
[1] = molecular target: T1, serine/threonine protein phosphatase type 5 (PaPP5), catalytic domain PaPP5c (Periplaneta americana, UniProt A0A3Q9NNI4); experiment: DiFMUP fluorescence phosphatase inhibition assay on purified recombinant PaPP5c; format: biochemical
T1 construct: gene PP5; catalytic domain of PP5 (167-489 amino acids, PP5c), His-tagged, expressed in E. coli; full-length GenBank AZT88974.1
T1 sequence (A0A3Q9NNI4 167-489): B1 chain

purified protein = substrate: Cc1cc(=O)oc2c(F)c(OP(=O)(O)O)c(F)cc12; experiment: purified protein; conditions: Mn2+ (MnCl2 in expression, dialysis and assay buffer)

Molecule	IC50 [1] [nM]	Km (purified protein) [µM]
C[C@@]12C(=O)OC(=O)[C@]1(C)[C@H]1CC[C@@H]2O1 [Cantharidin]	390 ± 40	–
O=C1OC(=O)[C@H]2[C@@H]1[C@@H]1CC[C@H]2O1 [Norcantharidin]	1870 ± 230	–
B1	–	144.10 ± 9.730
